Results reported in publication PMC9216188, “Expanding the Biological Properties of Alkannins and Shikonins: Their Impact on Adipogenesis and Life Expectancy in Nematodes” (Frontiers in Pharmacology, 2022).
Entries after “also recorded” stand apart in the source; their conditions may differ. Like-named read-outs stand apart in the source and are kept apart here.

Columns and labels:
3T3-L1 pre-adipocytes [1] = test: Differentiation of 3T3-L1 cells, lipid quantification by Oil Red O staining; type: cell-based, Mouse; conditions: for lipid accumulation / fold decrease in lipid accumulation / lipid accumulation (formed lipids): 1 μM, ORO stain, day 11; for lipid accumulation: absence of insulin; for fold decrease in lipid accumulation / lipid accumulation (formed lipids): in the presence of insulin
Description: (§1) Mouse fibroblast 3T3-L1 preadipocytes were kindly donated by the Laboratory of Inorganic Chemistry, School of Chemical Engineering, Aristotle University of Thessaloniki (Thessaloniki, Greece) and cultured in 75 cm^2 cell culture flasks in high-glucose DMEM supplemented with 10% FBS, 100 units/mL penicillin and […] streptomycin at 37°C in 5% CO2 and standard humidity. Medium was changed three times per week, until cells reached confluence. Two days post-confluency (day 0), cells were induced to differentiate by treating them with a differentiation/induction medium containing DMEM supplemented with 0.5 mM IBMX, 1 μM DEX, […] of insulin, and 10% FBS. Three days later (day 3), the medium was replaced with DMEM containing 10% FBS and 1 μg/ml insulin for two more days, after which (day 5) the medium was changed to DMEM with 10% FBS. The medium was replaced every 2 days until cells were harvested on day 11 ([Tsave et al., 2018]).
(§2) 3T3-L1 pre-adipocytes were differentiated into mature adipocytes following the aforementioned differentiation protocol (vide infra). Briefly, pre-adipocytes were treated with either 10 ng/ml of insulin and/or hydroxynaphthoquinones (100 nM or 1 μΜ). The tested compounds were first dissolved in DMSO and subsequently in the culture medium, with the final concentration of DMSO not exceeding 0.1% v/v. The initial stock concentration was 50 mM. Cells treated with insulin were considered as positive control whereas untreated cells were included as vehicle control. On the 11th day of the differentiation process, cell differentiation was assessed and validated by oil red O staining, as described elsewhere ([Tsave et al., 2016]). Further validation of successful adipogenesis was also confirmed by the relative expression of closely related biomarkers PPAR-γ and adiponectin (ADIPOQ).
3T3-L1 preadipocytes were seeded in 24-well plates at a density of 3.5 × 10^4 cells per well and differentiated as described above. On the 11th day, cells were washed three times with sterile PBS, fixed with formaldehyde 3.7%–4.0% for 20 min and stained with Oil Red O (ORO) solution for 10 min. Next, cells were washed with double distilled water (ddH2O) and stained lipids were observed and imaged under an inverted microscope, as described elsewhere ([Tsave et al., 2016]). The analysis and quantification of lipid accumulation—based on the amount of ORO dye—was performed by using ImageJ software (National Institutes of Health, United States). In brief, the RGB images with the stained lipids were converted to 8-bit grayscale (Image → Type → 8-bit). Next, a manual threshold was set (Image → Adjust → Threshold) for each sample and the stained areas were measured (Analyze → Measure) ([Mehlem et al., 2013]).

PPAR-γ [2] = test: RT-PCR relative mRNA expression of PPAR-γ in differentiated 3T3-L1 cells; type: cell-based, Mouse; conditions: day 11
Description: as §2
(§3) Total RNA was extracted from cells on the 11th day of the differentiation protocol, using TRItidy-G reagent. The concentration and purity (absorbance ratio 260/280) of the extracted RNA were measured with a NanoDrop™ 2000c spectrophotometer (Thermo Fisher Scientific, United States). Synthesis of cDNA was performed with the iScript cDNA synthesis kit according to manufacturer instructions. RT-PCR was run on Rotor Gene Q (Qiagen) using the iTaq Universal SYBR Green Supermix and appropriate reagents (Qiagen, United States).
(§4) Customized primers were used from Qiagen for adiponectin (Mm_Adipoq_1_SG, NM_009605, Q01048047), GAPDH (Mm Gapdh_3_SG, QT01658692) and mPPAR-γ forward 5′-GTCAGCGACTGGGACTTTTC-3′ and reverse 5′-CGAGGACATCCAAGACAACC-3’.

ADIPOQ [3] = test: RT-PCR relative mRNA expression of ADIPOQ in differentiated 3T3-L1 cells; type: cell-based, Mouse; conditions: day 11
Description: as §2, §3, §4

[4] = Cell viability of undifferentiated 3T3-L1 cells (CellTiter-Glo); type: cell-based, Mouse; conditions: mouse; 0.01, 0.1, and 1 μM, 24 h; read-out: cell viability (% of untreated cells)
Description: as §1
(§5) Viability of undifferentiated 3T3-L1 cells upon treatment with various concentrations of the hydroxynaphthoquinones was assessed using CellTiter-Glo assay in opaque-walled 96-well plates. This method utilizes the luciferase reaction for quantifying adenosine triphosphate (ATP), which is an indicator of cellular metabolic activity. Through the luciferase reaction, luminescence is generated in proportion to the amount of available ATP. […] Briefly, cells were seeded in a 96-well plate at a density of 3.5 × 10^3 cells and a total volume of 100 μl per well. After 24 h incubation, cells were treated with different concentrations (10 nM–10 μΜ) of the hydroxynaphthoquinones for 24 and 48 h. After the respective incubation times, cells in each condition were treated with a volume of the reagent equal to the volume of cell culture medium present in each well. The luminescence was recorded with a Glomax 96 microplate luminometer (Promega Corporation, United States). Untreated cells served as control samples. Each assay was performed three times, with at least three replicates each.
(§6) All tested compounds were previously dissolved in DMSO. The final concentration of DMSO in each well was lower than 0.1%. To confirm that DMSO at that concentration was inert, a screening was performed at various concentrations (0.00002%–2%) and cell viability was assessed. Cell viability was expressed as the percentage of viability observed in each compound, compared to the untreated cells.

3T3-L1 pre-adipocytes [5] = test: as above; type: cell-based, Mouse; conditions: for inhibition of cell viability: 4 μM; for IC50: Mus musculus, read-out: IC50 (cell viability)
Description: as §1, §5, §6

C. elegans N2 wild-type = test: C. elegans survival assay (nematocidal activity); type: in vivo, Caenorhabditis elegans; conditions: for % Survival after 10 days ±SD: N2 worms
Description: Caenorhabditis elegans wild-type var. Bristol N2, SS104 [glp-4 (bn2ts)] and Escherichia coli OP50 were provided by the Caenorhabditis Genetics Center (University of Minnesota, United States). Media and NGM agar plates have been prepared as described before ([Zwirchmayr et al., 2020]). OP50 were grown in LB medium for 8 h at 37°C, then harvested by centrifugation, washed twice with ddH2O and suspended in S-complete medium at 100 mg/ml. Worms were maintained on NGM agar plates inoculated with OP50. Synchronized cultures were prepared by egg-prep method ([Porta-de-la-Riva et al., 2012]) and experiments started at the […].
The survival assay was performed as described before: Briefly, a suspension of 5–18 synchronized L1 larvae (N2 wild-type) in S-complete medium were manually seeded into 96-well plates. OP50 at a concentration of 6 mg/ml was added immediately and worms were kept at 25°C. The following day, when all worms reached the L3 stage, the sterilizing-agent 5-Fluorodeoxyuridine (FUdR; 0.12 mM final; Sigma-Aldrich, F0503) was added to keep the population synchronized. The next day, samples were added in triplicate wells to the adult worm culture with DMSO as a carrier at a final concentration of 1%. The number of living worms in each well was counted on day 0, 3, 5, 7 and 10 of the treatment. The worms were oxygenized every 3 days and OP50 were added on day 5 of adulthood to prevent starvation. Results of three parallel experiments are presented as bar charts and are given as the mean survival rate of worms.

PPAR-γ [6] = test system: PPAR-γ; design: method as in Lee et al., 2010; Gwon et al., 2013; conditions: 0.5–2 μM ref Lee et al., 2010; Gwon et al., 2013; cited from earlier work
3T3-L1 pre-adipocytes [7] = test system: 3T3-L1 pre-adipocytes; design: method as in Lee et al., 2010; Gwon et al., 2013; Ha et al., 2016; conditions: 0.5–2 μM ref Lee et al., 2010; Gwon et al., 2013; Ha et al., 2016; cited from earlier work
ADIPOQ [8] = test system: ADIPOQ; design: method as in Lee H.-Y. et al., 2009; conditions: 2 μM ref Lee H.-Y. et al., 2009; cited from earlier work
C. elegans = test system: C. elegans; design: method as in Hunt et al., 2011; conditions: 100 to 500 μM, applied to solid agar medium ref Hunt et al., 2011; cited from earlier work
[9] = compound alone, absence of insulin

Compound | lipid accumulation (3T3-L1 pre-adipocytes [1]) [%] | PPAR-γ mRNA expression, fold increase (PPAR-γ [2]; compound together with insulin) [fold] | ADIPOQ mRNA expression, fold increase (ADIPOQ [3]; [9]) | ADIPOQ mRNA expression, fold increase (ADIPOQ [3]; compound together with insulin) | IC50 (3T3-L1 pre-adipocytes [5]; 3T3-L1 cells, 24 h) [nM] | lipid accumulation (formed lipids) (3T3-L1 pre-adipocytes [1]) | other results
CC(C)=CC[C@H](O)C1=CC(=O)c2c(O)ccc(O)c2C1=O [A, Alkannin] | 1.56 | 0.20 | strongest inhibition | not showing any increase at all | < 3000 | – | fold decrease in lipid accumulation (3T3-L1 pre-adipocytes [1]): 37 fold; inhibition of the formation of lipids (3T3-L1 pre-adipocytes [1]; in the presence of insulin (Figure 4)): ~100%; viability [4]: > 146%; inhibition of cell viability (3T3-L1 pre-adipocytes [5]; 24 h): more than 90%
CC(C)=CC[C@@H](OC(=O)C=C(C)C)C1=CC(=O)c2c(O)ccc(O)c2C1=O [DMAS, β,β-Dimethyl-acryl-shikonin] | 15.65 | 4.71 | 3.03 fold | 3.24 fold | – | 9.24% | PPAR-γ mRNA expression, fold increase (PPAR-γ [2]; [9]): 8.37 fold; % Survival after 10 days ±SD (C. elegans N2 wild-type; 15 μg/ml): 73.87 ± 1.61 %; % Survival after 10 days ±SD (C. elegans N2 wild-type; 60 μg/ml): 62.22 ± 17.36 %; concentrations showing reduced cell viability (3T3-L1 pre-adipocytes [5]; mouse, 24 h): > 4 µM
CC(C)=CC[C@@H](O)C1=CC(=O)c2c(O)ccc(O)c2C1=O [S, Shikonin] | 2.58 | 1.27 | 2.4 fold | < 1 fold | < 3000 | – | effect on expression of PPAR-γ (PPAR-γ [6]): significantly inhibited; fold decrease in lipid accumulation (3T3-L1 pre-adipocytes [1]): 22 fold; viability [4]: > 146%; inhibition of cell viability (3T3-L1 pre-adipocytes [5]; 24 h): more than 90%; effect on adipogenesis (3T3-L1 pre-adipocytes [7]): inhibit adipogenesis; effect on ADIPOQ expression (ADIPOQ [8]): strongly inhibit
CC(C)=CC[C@@H](OC(=O)CC(C)(C)O)C1=CC(=O)c2c(O)ccc(O)c2C1=O [β-hydroxy-isovaleryl-shikonin, reference compound] | – | – | – | – | – | – | effect on adipogenesis (3T3-L1 pre-adipocytes [7]): inhibit adipogenesis
CC(=O)O[C@H](CC=C(C)C)C1=CC(=O)c2c(O)ccc(O)c2C1=O [ACS, Acetyl-shikonin] | – | – | – | – | – | – | concentrations showing reduced cell viability (3T3-L1 pre-adipocytes [5]; 24 h): > 4 µM
insulin: human recombinant insulin, positive control of differentiation [reference compound] | – | – | – | – | – | – | PPAR-γ mRNA expression, fold increase (PPAR-γ [2]; positive control sample (insulin group)): 10.78 fold; ADIPOQ mRNA expression, fold increase (ADIPOQ [3]; positive control sample (insulin)): 8.67 fold
O=C1C=CC(=O)c2c(O)ccc(O)c21 [NAPH, Naphthazarin] | 5.74 | 5.2 | 1.79 fold | 2.13 fold | – | exceeded 10% | % Survival after 10 days ±SD (C. elegans N2 wild-type; 15 μg/ml): 0.00 ± 0.00 %; worms surviving the first 3 days of treatment (C. elegans N2 wild-type; 15 μg/ml, day 3): 50%; % Survival after 10 days ±SD (C. elegans N2 wild-type; 60 μg/ml): 0.00 ± 0.00 %; nematodes dead at the third day of treatment (C. elegans N2 wild-type; 60 μg/ml, day 3): ~100%; IC50 (3T3-L1 pre-adipocytes [5]; 3T3-L1, 24 h): < 3000 nM; effect on lifespan of C. elegans (C. elegans): extend the lifespan
CC(C)=CCCC1=CC(=O)c2c(O)ccc(O)c2C1=O [DS, Deoxy-shikonin] | 1.78 | 5.08 | strongest inhibition; also recorded: complete impediment of ADIPOQ expression | 4.85 fold | – | exceeded 10% | concentrations showing reduced cell viability (3T3-L1 pre-adipocytes [5]; 24 h): > 4 µM
CC(C)=CC[C@@H](OC(=O)CC(C)C)C1=CC(=O)c2c(O)ccc(O)c2C1=O [IVS, Isovaleryl-shikonin] | – | – | – | – | 8660 | – | concentrations showing reduced cell viability (3T3-L1 pre-adipocytes [5]; mouse, 24 h): > 4 µM
